This is an account of results in PubChem BioAssay (NCI).

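A five-concentration, 48-hour dose response in 96-well plates underlies each endpoint, interpolated linearly between surrounding concentrations. Here, GI50 denotes the concentration required for 50% inhibition of growth. The concentration for full growth arrest is given as TGI.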

Some test systems named below: A498 renal; ACHN renal; CCRF-CEM leukemia; COLO 205 colon; KM12 colon; LOX IMVI melanoma; NCI-H23 lung; RXF 393 renal; SK-MEL-28 melanoma; SN12C renal.
What all share (test): NCI-60 cell line screen, 48 h

As for `O=C1[C@@H]2C(c3c(Cl)cccc3Cl)=NO[C@@H]2C(=O)N1c1ccc(Cc2ccc(N3C(=O)[C@H]4C(c5c(Cl)cccc5Cl)=NO[C@H]4C3=O)cc2)cc1`, the TGI in the experiment on A498 renal, in the experiment on ACHN renal, in the experiment on CCRF-CEM leukemia, in the experiment with COLO 205 colon, in the experiment on KM12 colon and with LOX IMVI melanoma was > 100 µM each time. Further, the TGI in the experiment on NCI-H23 lung, with RXF 393 renal, in the experiment on SK-MEL-28 melanoma and in the experiment on SN12C renal was > 100 µM each time.
With `COc1ccc2c(c1)C(=O)c1c-2c(Nc2ccccc2OC)nc2ccccc12`, the GI50 with A498 renal was > 100 µM; with ACHN renal it was 89.2 µM; in the experiment on CCRF-CEM leukemia, > 100000 nM; with COLO 205 colon, > 100 µM; in the experiment with KM12 colon, > 100000 nM; with LOX IMVI melanoma it was > 100000 nM. Besides, the GI50 is > 100000 nM in the experiment with NCI-H23 lung, > 100000 nM in the experiment with RXF 393 renal, > 100 µM in the experiment on SK-MEL-28 melanoma and 42.1 µM in the experiment on SN12C renal. For the same compound, the TGI in the experiment on A498 renal, in the experiment with ACHN renal, in the experiment on CCRF-CEM leukemia, in the experiment on COLO 205 colon, with KM12 colon and in the experiment on LOX IMVI melanoma was > 100 µM throughout. Moreover, the TGI with NCI-H23 lung, in the experiment on RXF 393 renal, in the experiment with SK-MEL-28 melanoma and in the experiment with SN12C renal was > 100 µM throughout.
As to `Nc1nc2c(c3cnccc13)C(c1ccc(Cl)c(Cl)c1)Cc1cnccc1-2` (stereo not given), the GI50 in the experiment with A498 renal is 0.227 µM; with ACHN renal it was 0.807 µM; in the experiment on CCRF-CEM leukemia it was 388 nM; in the experiment on COLO 205 colon, 0.356 µM; with KM12 colon it was 480 nM; in the experiment on LOX IMVI melanoma it was 293 nM. Besides, the GI50 in the experiment with NCI-H23 lung is 1140 nM; in the experiment on RXF 393 renal it was 522 nM; with SK-MEL-28 melanoma, 2.85 µM; in the experiment with SN12C renal, 1.18 µM. For the same compound, the TGI in the experiment with A498 renal was 1.01 µM; in the experiment on ACHN renal, 4.04 µM; in the experiment on CCRF-CEM leukemia, 12.6 µM; in the experiment with COLO 205 colon it was 1.09 µM; with KM12 colon, 12.6 µM; with LOX IMVI melanoma it was 11 µM. In addition, the TGI with NCI-H23 lung is 9.13 µM; in the experiment with RXF 393 renal, 3.48 µM; in the experiment with SK-MEL-28 melanoma, 19 µM; with SN12C renal, 6.68 µM.
For `Cc1c(C(=N)C(C#N)C#N)c(=N)oc2c1ccc1ccccc12`, the GI50 is 9.83 µM in the experiment with A498 renal; 23.1 µM in the experiment on ACHN renal; 13000 nM in the experiment on CCRF-CEM leukemia; 14.9 µM with COLO 205 colon; 26200 nM with KM12 colon; 11900 nM in the experiment on LOX IMVI melanoma. Moreover, the GI50 is 16800 nM in the experiment on NCI-H23 lung, 2760 nM in the experiment on RXF 393 renal, 22.5 µM in the experiment on SK-MEL-28 melanoma and 22 µM with SN12C renal. Also, the TGI with A498 renal is 96 µM; with ACHN renal it was > 100 µM; in the experiment on CCRF-CEM leukemia, > 100 µM; in the experiment on COLO 205 colon, 29.8 µM; with KM12 colon it was > 100 µM; in the experiment on LOX IMVI melanoma it was 38.2 µM. For the same compound, the TGI is > 100 µM in the experiment with NCI-H23 lung, 15.4 µM in the experiment on RXF 393 renal, 60.8 µM in the experiment on SK-MEL-28 melanoma and > 100 µM with SN12C renal.
In the case of `CN[C@@H](C)C(=O)N[C@H]1CN(S(=O)(=O)c2cccc(S(=O)(=O)N3CC[C@H]4CC[C@@H](C(=O)NC(c5ccccc5)c5ccccc5)N4C(=O)[C@@H](NC(=O)[C@H](C)NC)C3)c2)CC[C@H]2CC[C@@H](C(=O)NC(c3ccccc3)c3ccccc3)N2C1=O`, the GI50 was 32.6 µM with A498 renal; > 79.7 µM in the experiment with ACHN renal; 1850 nM with CCRF-CEM leukemia; 15.3 µM in the experiment with COLO 205 colon; 16700 nM in the experiment on KM12 colon; 14800 nM in the experiment with LOX IMVI melanoma. The GI50 with NCI-H23 lung is 1090 nM; in the experiment with RXF 393 renal, 165 nM; with SK-MEL-28 melanoma it was 15.6 µM; with SN12C renal it was 16.6 µM. Besides, the TGI in the experiment with A498 renal is > 67.7 µM; in the experiment on ACHN renal, > 100 µM; in the experiment on CCRF-CEM leukemia, > 100 µM; with COLO 205 colon, 35.2 µM; in the experiment on KM12 colon, 34.3 µM; in the experiment on LOX IMVI melanoma, 36.5 µM. Further, the TGI in the experiment on NCI-H23 lung amounted to 17.9 µM; with RXF 393 renal, 2.93 µM; with SK-MEL-28 melanoma, 29.7 µM; in the experiment with SN12C renal it was 36 µM.
In the case of `O=C(Nc1cccc(-n2cc(-c3ccncc3)c(-c3cc(O)cc(Cl)c3)n2)c1)c1ccc(N2CCOCC2)c(C(F)(F)F)c1`, the GI50 in the experiment on A498 renal was 19.4 µM; in the experiment with ACHN renal it was 1.84 µM; with CCRF-CEM leukemia, 543 nM; with COLO 205 colon, 17.5 µM; in the experiment with KM12 colon, 1210 nM; in the experiment with LOX IMVI melanoma, 1030 nM. Besides, the GI50 with NCI-H23 lung is 3650 nM; in the experiment with RXF 393 renal it was 303 nM; with SK-MEL-28 melanoma, 0.759 µM; in the experiment with SN12C renal, 6.37 µM. For the same compound, the TGI in the experiment with A498 renal was 73.2 µM; in the experiment with ACHN renal it was 29.3 µM; in the experiment on CCRF-CEM leukemia, > 100 µM; with COLO 205 colon, 64.5 µM; with KM12 colon, > 100 µM; with LOX IMVI melanoma, 4.61 µM. Moreover, the TGI in the experiment with NCI-H23 lung is 38.8 µM; with RXF 393 renal, 1.9 µM; with SK-MEL-28 melanoma, 3.27 µM; with SN12C renal, > 100 µM.
As for `COC(=O)C1C(=O)O[C@@H](c2ccc3c(c2)OCO3)C1C(=O)OC` (mixture of isomers), the TGI with A498 renal, in the experiment with ACHN renal, in the experiment on CCRF-CEM leukemia, in the experiment on COLO 205 colon, in the experiment on KM12 colon and in the experiment with LOX IMVI melanoma was > 100 µM in each case. Besides, the TGI in the experiment with NCI-H23 lung, in the experiment with RXF 393 renal, in the experiment with SK-MEL-28 melanoma and with SN12C renal was > 100 µM each time.
Turning to `CC1(C)N=C(N)N=C(N)N1c1ccc(CCC(=O)Nc2ccc(S(=O)(=O)F)cc2)cc1`, the GI50 in the experiment on A498 renal was 5.99 µM; in the experiment on ACHN renal it was 7.34 µM; in the experiment on CCRF-CEM leukemia, 730 nM; in the experiment with COLO 205 colon, 0.922 µM; in the experiment with KM12 colon it was 640 nM; in the experiment with LOX IMVI melanoma it was 1660 nM. Moreover, the GI50 is 2190 nM with NCI-H23 lung, 307 nM with RXF 393 renal, 8.22 µM with SK-MEL-28 melanoma and 1.59 µM in the experiment with SN12C renal. Moreover, the TGI in the experiment with A498 renal, in the experiment with ACHN renal, in the experiment on CCRF-CEM leukemia, in the experiment on COLO 205 colon, in the experiment on KM12 colon and with LOX IMVI melanoma was > 100 µM in each case. In addition, the TGI in the experiment with NCI-H23 lung, with RXF 393 renal, with SK-MEL-28 melanoma and in the experiment with SN12C renal was > 100 µM throughout.
